Data published in PubChem BioAssay (NCI).
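Assay format: 96-well plates, 48-hour exposure. GI50 is the concentration that inhibits growth by half. At the TGI there is no net growth.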

Key:
Experiment in all cases: growth of human tumour cells (NCI), 48 h
[1] = test system: BT-549 breast
[2] = test system: SF-268 CNS
[3] = test system: NCI-H23 lung
[4] = test system: A549 NSCLC
[5] = test system: UO-31 renal
[6] = test system: HOP-92 NSCLC
[7] = test system: OVCAR-3 ovarian
[8] = test system: ACHN renal
[9] = test system: MCF7 breast
[10] = test system: DU-145 prostate
[11] = test system: SW-620 colon
[12] = test system: LOX IMVI melanoma
[13] = test system: OVCAR-5 ovarian
[14] = test system: EKVX NSCLC
[15] = test system: TK-10 renal
[16] = test system: SF-539 CNS
[17] = test system: PC-3 prostate
[18] = test system: HS 578T breast
[19] = test system: HL-60(TB) leukemia
[20] = test system: MALME-3M melanoma
[21] = test system: HCT-15 colon
[22] = test system: SK-OV-3 ovarian
[23] = test system: SN12C renal
[24] = test system: SK-MEL-28 melanoma
[25] = test system: COLO 205 colon
[26] = test system: UACC-257 melanoma
[27] = test system: CAKI-1 renal
[28] = test system: HCT-116 colon
[29] = test system: HOP-62 NSCLC
[30] = test system: 786-0 renal
[31] = test system: MDA-MB-231 breast
[32] = test system: UACC-62 melanoma
[33] = test system: KM12 colon
[34] = test system: OVCAR-4 ovarian
[35] = test system: HT29 colon
[36] = test system: SF-295 CNS
[37] = test system: SNB-19 CNS
[38] = test system: OVCAR-8 ovarian
[39] = test system: IGROV1 ovarian
[40] = test system: M14 melanoma
[41] = test system: NCI-H460 lung
[42] = test system: RPMI-8226 leukemia
[43] = test system: NCI/ADR-RES ovarian
[44] = test system: MOLT-4 leukemia
[45] = test system: CCRF-CEM leukemia
[46] = test system: NCI-H522 lung
[47] = test system: SK-MEL-2 melanoma
[48] = test system: SR leukemia
[49] = test system: MDA-N
[50] = test system: K-562 leukemia
[51] = test system: NCI-H226 lung
[52] = test system: U251 CNS
[53] = test system: MDA-MB-435
[54] = test system: SNB-75 CNS
[55] = test system: HCC-2998 colon
[56] = test system: RXF 393 renal
[57] = test system: A498 renal
[58] = test system: T-47D breast
[59] = test system: SK-MEL-5 melanoma

O=CN1CCN(c2ccc3ccc(=O)[nH]c3n2)CC1 gave a TGI [1] of over 100 µM, a TGI [2] of over 100 µM and a TGI [3] of over 100 µM. The TGI [4] was over 100 µM, the TGI [5] was over 100 µM and the TGI [6] was over 100 µM. It also gave a TGI [7] of over 100 µM, a TGI [8] of over 100 µM and a TGI [9] of over 100 µM. For the same molecule, the TGI [10] was over 100 µM, the TGI [11] was over 100 µM and the TGI [12] was over 100 µM. It also gave a TGI [13] of over 100 µM, a TGI [14] of over 100 µM and a TGI [15] of over 100 µM. The TGI [16] was over 100 µM, the TGI [17] was over 100 µM and the TGI [18] was over 100 µM. The TGI [19] was over 100 µM, the TGI [20] was over 100 µM and the TGI [21] was over 100 µM. It also gave a TGI [22] of over 100 µM, a TGI [23] of over 100 µM and a TGI [24] of over 100 µM. It also gave a TGI [25] of over 100 µM, a TGI [26] of over 100 µM and a TGI [27] of over 100 µM. For the same molecule, the TGI [28] was over 100 µM, the TGI [29] was over 100 µM and the TGI [30] was over 100 µM. For the same molecule, the TGI [31] was over 100 µM, the TGI [32] was over 100 µM and the TGI [33] was over 100 µM. For the same molecule, the TGI [34] was over 100 µM, the TGI [35] was over 100 µM and the TGI [36] was over 100 µM. The TGI [37] was over 100 µM, the TGI [38] was over 100 µM and the TGI [39] was over 100 µM. The TGI [40] was over 100 µM, the TGI [41] was over 100 µM and the TGI [42] was over 100 µM. For the same molecule, the TGI [43] was over 100 µM, the TGI [44] was over 100 µM and the TGI [45] was over 100 µM. The TGI [46] was over 100 µM, the TGI [47] was over 100 µM and the TGI [48] was over 100 µM. For the same molecule, the TGI [49] was over 100 µM, the TGI [50] was over 100 µM and the TGI [51] was over 100 µM. For the same molecule, the TGI [52] was over 100 µM, the TGI [53] was over 100 µM and the TGI [54] was over 100 µM. It also gave a TGI [55] of over 100 µM.

CCSC[C@@H]1C[C@](O)(c2ccccc2)[C@@H](c2ccccc2)O1 was tested, and the GI50 [1] was 89.1 µM, the TGI [1] was over 100 µM and the GI50 [2] was over 78.6 µM. The TGI [2] was over 100 µM, the GI50 [3] was 79.9 µM and the TGI [3] was over 100 µM. For the same molecule, the GI50 [4] was 82.9 µM, the TGI [4] was over 100 µM and the GI50 [5] was 51.2 µM. For the same molecule, the TGI [5] was over 100 µM, the GI50 [6] was 65.5 µM and the TGI [6] was over 100 µM. For the same molecule, the GI50 [56] was 76.2 µM, the TGI [56] was over 100 µM and the GI50 [7] was 70.1 µM. For the same molecule, the TGI [7] was over 100 µM, the GI50 [57] was 69.9 µM and the TGI [57] was over 100 µM. For the same molecule, the GI50 [8] was over 88 µM, the TGI [8] was over 100 µM and the GI50 [9] was 74.6 µM. It also gave a TGI [9] of over 100 µM, a GI50 [10] of over 100 µM and a TGI [10] of over 100 µM. The GI50 [11] was over 100 µM, the TGI [11] was over 100 µM and the GI50 [12] was over 94.2 µM. The TGI [12] was over 100 µM, the GI50 [13] was over 100 µM and the TGI [13] was over 100 µM. It also gave a GI50 [14] of 59.2 µM, a TGI [14] of over 100 µM and a GI50 [58] of 49 µM. The TGI [58] was over 100 µM, the GI50 [15] was over 91.7 µM and the TGI [15] was over 100 µM. The GI50 [16] was over 100 µM, the TGI [16] was over 100 µM and the GI50 [17] was 56.7 µM. The TGI [17] was over 100 µM, the GI50 [18] was 50.9 µM and the TGI [18] was over 97.1 µM. It also gave a GI50 [19] of 9.84 µM, a TGI [19] of over 50.7 µM and a GI50 [20] of over 100 µM. The TGI [20] was over 100 µM, the GI50 [21] was 82.1 µM and the TGI [21] was over 100 µM. The GI50 [22] was over 100 µM, the TGI [22] was over 100 µM and the GI50 [23] was over 94.5 µM. The TGI [23] was over 100 µM, the GI50 [24] was over 100 µM and the TGI [24] was over 100 µM. It also gave a GI50 [25] of over 78.9 µM, a TGI [25] of over 100 µM and a GI50 [26] of over 82.3 µM. It also gave a TGI [26] of over 100 µM, a GI50 [27] of over 83.8 µM and a TGI [27] of over 100 µM. The GI50 [28] was 58.6 µM, the TGI [28] was over 100 µM and the GI50 [29] was over 100 µM. It also gave a TGI [29] of over 100 µM, a GI50 [30] of over 100 µM and a TGI [30] of over 100 µM. The GI50 [31] was over 95 µM, the TGI [31] was over 100 µM and the GI50 [32] was 69.2 µM. For the same molecule, the TGI [32] was over 100 µM, the GI50 [33] was over 75.8 µM and the TGI [33] was over 100 µM. The GI50 [34] was 66.9 µM, the TGI [34] was over 100 µM and the GI50 [35] was 69.6 µM. The TGI [35] was over 100 µM, the GI50 [36] was 46.2 µM and the TGI [36] was over 100 µM. It also gave a GI50 [59] of 44.4 µM, a TGI [59] of over 100 µM and a GI50 [37] of over 100 µM. The TGI [37] was over 100 µM, the GI50 [38] was over 100 µM and the TGI [38] was over 100 µM. It also gave a GI50 [39] of 59.5 µM, a TGI [39] of over 100 µM and a GI50 [40] of over 90.1 µM. For the same molecule, the TGI [40] was over 100 µM, the GI50 [41] was over 76.1 µM and the TGI [41] was over 100 µM. For the same molecule, the GI50 [42] was 28.7 µM, the TGI [42] was over 100 µM and the GI50 [43] was 77.8 µM. For the same molecule, the TGI [43] was over 100 µM, the GI50 [44] was 7.18 µM and the TGI [44] was over 23.7 µM. For the same molecule, the GI50 [45] was over 71.5 µM, the TGI [45] was over 100 µM and the GI50 [46] was 58.4 µM. The TGI [46] was over 100 µM, the GI50 [47] was over 100 µM and the TGI [47] was over 100 µM. It also gave a GI50 [48] of under 0.136 µM, a TGI [48] of 9.3 µM and a GI50 [50] of 12.3 µM. It also gave a TGI [50] of over 100 µM, a GI50 [51] of over 77.1 µM and a TGI [51] of over 100 µM. It also gave a GI50 [52] of 99.1 µM, a TGI [52] of over 100 µM and a GI50 [53] of over 94.6 µM. The TGI [53] was over 100 µM, the GI50 [54] was 61.4 µM and the TGI [54] was over 100 µM. It also gave a GI50 [55] of over 100 µM and a TGI [55] of over 100 µM.
